Paper PMC6430500, “3-Fluoro-4-hydroxyprolines: Synthesis, Conformational Analysis, and Stereoselective Recognition by the VHL E3 Ubiquitin Ligase for Targeted Protein Degradation” (Journal of the American Chemical Society, 2018)
Where two headings read alike, the source gives them in different places. Marks after values point to notes of the source that are not given here. One block for each compound: values may come before it. *1 amine or outer side, *2 acyl side, *3 side chain or, on linkers, in order; H or OH if unused. Where a SMILES comes first, the peptide text is derived from it. [ ]: non-standard residue; d: D form. X1 = O=C([C@@H]1[C@@H](F)[C@@H](O)CN1[*:1])[*:2]; X2 = O=C([C@@H]1[C@H](F)[C@@H](O)CN1[*:1])[*:2]

What was measured:
[1] = biological target: T1, VBC (VHL, elongin B, elongin C) (Homo sapiens, UniProt P40337); assay: ITC of peptides and ligands against VBC; type: binding; details: for Kd / ΔG / ΔH / –TΔS: ITC, 25°C; for Kd: mean ± s.e.m.; for fold difference in binding affinity compared to VH032: relative to VH032 Kd
T1 construct: VHL (54–213), ElonginC (17–112) and; His6 (N, cleaved yes); made in house; host or cells: Escherichia coli BL21(DE3)
T1 sequence (P40337 54-213): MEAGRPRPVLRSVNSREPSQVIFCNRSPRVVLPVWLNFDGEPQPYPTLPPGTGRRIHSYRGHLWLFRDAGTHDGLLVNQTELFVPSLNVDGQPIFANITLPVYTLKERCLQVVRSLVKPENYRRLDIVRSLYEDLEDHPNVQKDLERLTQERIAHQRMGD
T1 sequence (Q15369 17-112 partner limits assumed): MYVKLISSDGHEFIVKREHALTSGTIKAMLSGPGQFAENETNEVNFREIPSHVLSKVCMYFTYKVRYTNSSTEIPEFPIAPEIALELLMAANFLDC
T1 sequence (Q15370 1-104 partner limits assumed): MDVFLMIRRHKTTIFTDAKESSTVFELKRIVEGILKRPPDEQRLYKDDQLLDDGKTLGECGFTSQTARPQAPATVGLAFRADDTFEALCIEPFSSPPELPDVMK

[2] = Intrinsic clearance in mouse liver microsomes; type: in vitro ADME; details: 0.5 µM
Method: (§1) Test compound (10 µM) was incubated in pre-warmed plasma at 37 ᵒC (that is buffered to pH 7.4 in ratio of 70:30 plasma to buffer). Immediately, at time zero, then at 30, 60, 120, and 180 min, a 50 µL aliquot of the incubation mixture was removed and mixed with 200 µL acetonitrile containing Donepezil as the internal standard (50 ng/ml) to stop the reaction. The samples were centrifuged to sediment the precipitated protein and the plates then sealed prior to UPLC-MS/MS analysis using a Quattro Premier XE (Waters Corporation, USA).
(§2) XLfit (IDBS, UK) was used to calculate the exponential decay and consequently the rate constant (k) from the ratio of peak area of test compound to internal standard at each time point. The half-life was calculated for each test compound from the rate by using the following calculation:
(§3) Test compound (0.5 µM) was incubated with female CD1 mouse liver microsomes (Xenotech LLC TM; 0.5 mg/mL in 50mM potassium phosphate buffer, pH 7.4) and the reaction started with addition of excess NADPH (8 mg/mL 50 mM potassium phosphate buffer, pH 7.4). […]
(§4) from the ratio of peak area of test compound to internal standard at each time point. The rate of intrinsic clearance (CLi) of each test compound was then calculated using the following calculation: […]

Plasma stability = type: in vitro ADME; details: 37 °C, pH 7.4, read-out: plasma stability T1/2
Method: as §1, §2, §3, §4

[3] = Parallel artificial membrane permeability assay (PAMPA); type: in vitro ADME; details: pH 7.4, 10 µM
Method: Parallel Artificial Membrane Permeability Assay (PAMPA)
PAMPA was performed using a 96-well pre-coated BD Gentest™ PAMPA plate (BD Biosciences, U.K.). Each well was divided into two chambers; donor and acceptor, separated by a lipid-oil-lipid tri-layer constructed in a porous filter. The effective permeability, Pe, of the compound was measured at pH 7.4. Stock solutions (5 mM) of the compound were prepared in DMSO. The compound was then further diluted to 10 µM in phosphate buffered saline at pH 7.4. The final DMSO concentration did not exceed 5% v/v. The compound dissolved in phosphate buffered saline was then added to the donor side of the membrane and phosphate buffered saline without compound was added to the acceptor side. The PAMPA plate was left at room temperature for 5 h. After which time, an aliquot (100 µl) was then removed from both acceptor and donor compartments and mixed with acetonitrile (80 µl) containing an internal standard. The samples were centrifuged (10 min, 5 °C, 3270 g) to sediment precipitated protein and sealed prior to UPLC-MS/MS analysis using a Quattro Premier XE (Waters Corp, USA). Pe was calculated as shown in the below equation: […]
C D(t)= peak area of compound present in donor well at time t = 18000 s Recovery of compound from donor and acceptor wells was calculated and data was only accepted when recovery exceeded 70%.

CHI Log D determination = type: physicochemical; details: reversed-phase HPLC, Phenomenex Luna C18 column, pH 7.4; read-out: CHI LogD7.4
Method: Using a fast gradient, reverse-phase HPLC method to determine the chromatographic hydrophobicity index (CHI) was determined as described by Camurri and Zaramella (ref. 26) and Valko et al. (ref. 27).
Briefly, by plotting the retention time of a set of reference compounds against known CHI values. The CHI value of test compounds was then calculated according to their retention time.
Test compounds were prepared as 0.5 mM solutions in 50:50 acetonitrile:water and analysed by reversed-phase HPLC-UV (wavelength 254 nm) using a Phenomenex Luna C18 100Å 150 x 4.6mm 5 micron column with a gradient of aqueous phase (50 mM ammonium acetate, pH 7.4) and mobile

MV4;11 cells = assay: CellTiter-Glo cell viability assay; type: cell-based; details: for EC50: MV4-11, 72 h
Method: MV4;11 cells (15000 cells per well) were dosed for 72 h with compounds serially diluted (1:3) on a clear-bottom 384-well plate with a final concentration of 0.05% (v/v) DMSO. After treatment, Promega CellTiter-Glo luminescent cell viability assay (G7572) was added to the cells according to the manufacturer instructions. The signal from each well was recorded on a BM G Labtech Pherastar luminescence plate reader with recommended settings.
Normalized data were analyzed and plotted with Graphpad Prism software in the ‘log(inhibitor) vs. response -- Variable slope (four parameters)’ module. EC50 values of each test compound were […]

A549 cells = assay: A549 colony-formation assay; type: cell-based; details: 7 days, crystal violet
Method: A549 Colony-Formation Assay
A549 cells were seeded in clear, Nunc™ Edge 2.0 96 -w ell plates (Thermo Scientific) at 1000 cells per well and incubated at 37°C in DMEM. After 24 h cells were treated with test compounds from 10 µM to 100 nM , with a final DM SO of 0.1%. The cells were left to grow until DM SO -treated wells reached ~100% confluence (~8 days), at which point they were washed with PBS, fixed with 100% MeOH (30 min 4°C), stained with 0.1% crystal violet (30 min at r.t.) and left to dry overnight. Once dried plates were imaged on an Epson Perfection V800 scanner, at a resolution of 1200 DPI and in 48 -bit colour.
For dose-response curves, crystal-violet dye was extracted by the addition of 200 µl 1% SDS to each well, and incubation for 3 h at r.t. The absorbance at 595nm of each well was measured on a Pherastar FS (BMG), normalised for each compound and plotted against compound concentration.
(1 picture or pasted object on this page, not shown here)

[4] = design: method as in Frost et al. 40; details: ref Frost et al. 40; cited from earlier work
[5] = design: method as in Frost et al. 40; details: ref Frost et al. 40; cited from earlier work; remark: listed apart in the source
[6] = design: method as in Frost et al. 40; details: ref Frost et al. 40; cited from earlier work; remark: listed apart in the source

Kd [1]: 12 ± 2 nM
SMILES: CC[C@H](C)[C@H](NC(=O)[C@H](Cc1ccc(O)cc1)NC(=O)[C@@H]1[C@@H](F)[C@@H](O)CN1C(=O)[C@H](C)NC(=O)[C@H](CC(C)C)NC(=O)[C@H](C)NC(=O)[C@H](CCC(=O)O)NC(=O)[C@@H](N)CC(=O)O)C(=O)N1CCC[C@H]1C(=O)N[C@@H](CCSC)C(=O)N[C@@H](CC(=O)O)C(=O)N[C@@H](CC(=O)O)C(=O)N[C@@H](CC(=O)O)C(=O)N[C@@H](Cc1ccccc1)C(=O)N[C@@H](CCC(N)=O)C(=O)N[C@@H](CC(C)C)C(=O)N[C@@H](CCCNC(=N)N)C(=O)N[C@@H](CO)C(=O)N[C@@H](Cc1ccccc1)C(N)=O [13a] (H-DEALA[X1]YIPMDDDFQLRSF-NH2)

Kd [1]: 52 ± 3 nM
SMILES: CC[C@H](C)[C@H](NC(=O)[C@H](Cc1ccc(O)cc1)NC(=O)[C@@H]1[C@H](F)[C@@H](O)CN1C(=O)[C@H](C)NC(=O)[C@H](CC(C)C)NC(=O)[C@H](C)NC(=O)[C@H](CCC(=O)O)NC(=O)[C@@H](N)CC(=O)O)C(=O)N1CCC[C@H]1C(=O)N[C@@H](CCSC)C(=O)N[C@@H](CC(=O)O)C(=O)N[C@@H](CC(=O)O)C(=O)N[C@@H](CC(=O)O)C(=O)N[C@@H](Cc1ccccc1)C(=O)N[C@@H](CCC(N)=O)C(=O)N[C@@H](CC(C)C)C(=O)N[C@@H](CCCNC(=N)N)C(=O)N[C@@H](CO)C(=O)N[C@@H](Cc1ccccc1)C(N)=O [13b] (H-DEALA[X2]YIPMDDDFQLRSF-NH2)

Kd [1]: 11 ± 1 nM
SMILES: CC[C@H](C)[C@H](NC(=O)[C@H](Cc1ccc(O)cc1)NC(=O)[C@@H]1C[C@@H](O)CN1C(=O)[C@H](C)NC(=O)[C@H](CC(C)C)NC(=O)[C@H](C)NC(=O)[C@H](CCC(=O)O)NC(=O)[C@@H](N)CC(=O)O)C(=O)N1CCC[C@H]1C(=O)N[C@@H](CCSC)C(=O)N[C@@H](CC(=O)O)C(=O)N[C@@H](CC(=O)O)C(=O)N[C@@H](CC(=O)O)C(=O)N[C@@H](Cc1ccccc1)C(=O)N[C@@H](CCC(N)=O)C(=O)N[C@@H](CC(C)C)C(=O)N[C@@H](CCCNC(=N)N)C(=O)N[C@@H](CO)C(=O)N[C@@H](Cc1ccccc1)C(N)=O [13c, reference compound]

ΔG [1]: –9.02 ± 0.01 kcal/mol
ΔH [1]: –7.2 ± 0.5 kcal/mol
–TΔS [1]: –1.8 ± 0.5 kcal/mol
fold difference in binding affinity compared to VH032 [1]: ≤ 2 fold
mouse microsomal stability [2]: <0.50 mL/min/g liver
half-life at 10 µM (Plasma stability): > 3 h
Papp at 5 h, 10 µM [3]: 0.23 ×10⁻⁶ cm/s
chromatographic logD (CHI Log D determination): 1.3
SMILES: CC(=O)N[C@H](C(=O)N1C[C@H](O)[C@H](F)[C@H]1C(=O)NCc1ccc(-c2scnc2C)cc1)C(C)(C)C [14a]

ΔG [1]: –7.55 ± 0.03 kcal/mol
ΔH [1]: –3.9 ± 0.5 kcal/mol
–TΔS [1]: –3.8 ± 0.4 kcal/mol
Kd [1]: 3080 nM
fold difference in binding affinity compared to VH032 [1]: ~20 fold
mouse microsomal stability [2]: 0.68 mL/min/g liver
half-life at 10 µM (Plasma stability): > 3 h
Papp at 5 h, 10 µM [3]: 0.081 ×10⁻⁶ cm/s
chromatographic logD (CHI Log D determination): 1.3
SMILES: CC(=O)N[C@H](C(=O)N1C[C@H](O)[C@@H](F)[C@H]1C(=O)NCc1ccc(-c2scnc2C)cc1)C(C)(C)C [14b]

pEC50, antiproliferative activity (MV4;11 cells; 72 h): 7.3
EC50 (MV4;11 cells; Homo sapiens, read-out: EC50, antiproliferative activity): 54.7 nM
EC50 (MV4;11 cells; Homo sapiens, read-out: pEC50, antiproliferative activity (converted)): 54.7 nM
SMILES: Cc1ncsc1-c1ccc(CNC(=O)[C@@H]2C[C@@H](O)CN2C(=O)[C@@H](NC(=O)COCCOCCOCCNC(=O)C[C@@H]2N=C(c3ccc(Cl)cc3)c3c(sc(C)c3C)-n3c(C)nnc32)C(C)(C)C)cc1 [MZ1, reference compound]
Emax (MV4;11 cells; Homo sapiens, 72 h, read-out: Emax, maximal response at highest concentration): 98%
effect on cell growth, colony formation (in words) (A549 cells): profound concentration-dependent cytotoxicity

SMILES: CC(=O)N[C@H](C(=O)N1C[C@H](O)C[C@H]1C(=O)NCc1ccc(-c2scnc2C)cc1)C(C)(C)C [VH032]
mouse microsomal stability [4]: 0.70 ^a mL/min/g liver
plasma stability T1/2 [5]: >180 ^a min
CHI LogD7.4 [6]: 0.90 ^a
